Measurements taken from patent US7514245B2, “Method for producing chiral α-hydroxycarboxylic acids by enzymatic hydrolysis of chiral cyanohydrins” (DSM Fine Chemicals Austria NFG GmbH & Co. KG, priority 2003, dated 2009).

Target: T1, Rhodococcus erythropolis NCIMB 11540 amidase (Rhodococcus erythropolis, UniProt P22984)
T1 construct: made in house; host or cells: E. coli B BL21 (plasmid pMS470-33/3/1/11), crude lysate
T1 sequence (P22984 1-521): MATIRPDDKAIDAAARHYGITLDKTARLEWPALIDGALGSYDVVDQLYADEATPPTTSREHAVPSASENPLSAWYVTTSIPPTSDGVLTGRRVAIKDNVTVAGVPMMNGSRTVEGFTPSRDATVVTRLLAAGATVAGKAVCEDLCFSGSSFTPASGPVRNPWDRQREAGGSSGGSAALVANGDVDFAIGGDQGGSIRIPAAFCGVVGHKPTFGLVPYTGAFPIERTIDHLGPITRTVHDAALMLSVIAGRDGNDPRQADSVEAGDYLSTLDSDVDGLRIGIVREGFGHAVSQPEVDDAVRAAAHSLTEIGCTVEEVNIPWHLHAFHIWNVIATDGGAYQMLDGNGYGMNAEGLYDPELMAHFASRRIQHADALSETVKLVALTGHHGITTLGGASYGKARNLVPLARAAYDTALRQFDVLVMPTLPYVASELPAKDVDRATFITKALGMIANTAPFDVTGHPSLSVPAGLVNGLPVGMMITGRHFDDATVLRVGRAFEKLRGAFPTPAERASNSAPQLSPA
Assay: Determination of amidase activity of crude lysates with acetamide
Assay type: biochemical
Conditions: pMS470-33/3/1/11 lysate; acetamide (40 mM) in PBS buffer at 37° C.; indophenolblue method
Protocol: The E. coli B BL21 cells transformed by pMS470-33/3/1/11 were isolated on LB-ampicillin plates and an ONC of 100 ml of LB-ampicillin medium was inoculated with an individual colony. On the next morning a main culture consisting of 250 ml of SOC-ampicillin medium was inoculated into a 1000 ml chicane flask to an OD600 of 0.01 to 0.03 (Beckmann Photometer). […] After reaching the induction density (OD600=1 Beckmann Photometer), the cultures were induced by adding IPTG to a concentration of 0.3 mM. After an induction time of 16 h, the cells were harvested (centrifugation 3000·g, 10 min) and washed with sodium phosphate buffer (0.1 M, pH=7). The pellet produced was resuspended to approximately 5 ml total volume in wash buffer and disintegrated using an ultrasound probe (BRANSON Sonifier 250, 60% power setting, constant sonication; 5 times 30 s each with 1 min pause for cooling) with constant cooling to completeness (visual control of completeness under the microscope). […]
[…] The resultant blue coloration, after dilution of all samples and standards 1:10) with water, was quantified in the spectrophotometer (Perkin Elmer UV/VIS Spectrometer Lambda Bio) at 640 nm. By correlating the increase in blue coloration over time with the extinction values of the standards, the activity (μmol of released ammonium per minute) could be back-calculated.

CC(N)=O [acetamide]
activity of crude lysates: approximately 75 U/ml
